According to patent US7101872B2, “Farnesyl dibenzodiazepinone, and processes for its production” (Ecopia BioSciences, Inc., priority 2003, dated 2006):

Assays:
Test in all cases: NCI panel SRB growth inhibition
Assay type in all cases: cell-based
HS 578T = conditions: Homo sapiens, Breast, 48 h
Experimental: (§1) The operation of this unique screen utilizes […] different human tumor cell lines, representing leukemia, melanoma and cancers of the lung, colon, brain, ovary, breast, prostate, and kidney.
(§2) Culture conditions and plating: The human tumor cell lines of the cancer-screening panel were grown in RPMI 1640 medium containing 5% fetal bovine serum and 2 mM L-glutamine. For a typical screening experiment, cells were inoculated into 96 well microtiter plates in 100 μL at plating densities ranging from 5,000 to 40,000 cells/well depending on the doubling time of individual cell lines (Table 5). After cell inoculation, the microtiter plates were incubated at 37° C., 5% CO2, 95% air and 100% relative humidity for 24 h prior to addition of experimental drugs. After 24 h, two plates of each cell line were fixed in situ with TCA, to represent a measurement of the cell population for each cell line at the time of drug addition (Tz). Evaluation of inhibitory activity on cell proliferation: ECO-04601 was provided as a lyophilized powder with an estimated purity of 90+%. The compound was stored at −20° C. until day of use. ECO-04601 was solubilized in dimethyl sulfoxide at 400-fold the desired final maximum test concentration. At the time of drug addition, an aliquot of frozen concentrate was thawed and diluted to twice the desired final maximum test concentration with complete medium containing 50 μg/mL gentamicin. Additional four, 10-fold or Y2 log serial dilutions were made to provide a total of five drug concentrations plus control. Aliquots of 100 μl of these different drug dilutions were added to the appropriate microtiter wells already containing 100 μl of medium, resulting in the required final drug concentrations (8.0×10^−5 M to 8.0×10^−9 M).
(§3) Following drug addition, the plates were incubated for an additional 48 h at 37° C., 5% CO2, 95% air, and 100% relative humidity. For adherent cells, the assay was terminated by the addition of cold TCA. Cells were fixed in situ by the gentle addition of 50 μl of cold 50% (w/v) TCA (final concentration, 10% TCA) and incubated for 60 minutes at 4° C. Supernatants were discarded, and the plates were washed five times with tap water and air-dried. Sulforhodamine B (SRB) solution (100 μl) at 0.4% (w/v) in 1% acetic acid was added to each well, and plates were incubated for 10 minutes at room temperature. After staining, unbound dye was removed by washing five times with 1% acetic acid and the plates were air-dried. Bound stain was subsequently solubilized with 10 mM trizma base, and the absorbance was read on an automated plate reader at a wavelength of 515 nm. For suspension cells, the methodology was the same except that the assay was terminated by fixing settled cells at the bottom of the wells by gently adding 50 μl of 80% TCA (final concentration, 16% TCA).
(§4) The growth inhibitory activity of ECO-04601 was measured by NCI utilizing the GI50 value, rather than the classical IC50 value.

T-47D = conditions: Homo sapiens, T47D, Breast, 48 h
Experimental: as §1, §2, §3, §4

HCT-15 = conditions: Homo sapiens, HCT-15, Colon, 48 h
Experimental: as §1, §2, §3, §4

OVCAR-8 = conditions: Homo sapiens, OVCAR-8, Ovarian, 48 h
Experimental: as §1, §2, §3, §4

OVCAR-5 = conditions: Homo sapiens, OVCAR-5, Ovarian, 48 h
Experimental: as §1, §2, §3, §4

NCI-H522 = conditions: Homo sapiens, NCI-H522, Non-Small Cell Lung, 48 h
Experimental: as §1, §2, §3, §4

K-562 = conditions: Homo sapiens, K562, K-562, Leukemia, 48 h
Experimental: as §1, §2, §3, §4

HCT-116 = conditions: Homo sapiens, HCT-116, Colon, 48 h
Experimental: as §1, §2, §3, §4

SF-539 = conditions: Homo sapiens, SF-539, CNS, 48 h
Experimental: as §1, §2, §3, §4

NCI/ADR-RES = conditions: Homo sapiens, Breast, 48 h
Experimental: as §1, §2, §3, §4

NCI-H23 = conditions: Homo sapiens, NCI-H23, Non-Small Cell Lung, 48 h
Experimental: as §1, §2, §3, §4

SK-OV-3 = conditions: Homo sapiens, SK-OV-3, Ovarian, 48 h
Experimental: as §1, §2, §3, §4

SW-620 = conditions: Homo sapiens, SW-620, Colon, 48 h
Experimental: as §1, §2, §3, §4

A549/ATCC = conditions: Homo sapiens, Non-Small Cell Lung, 48 h
Experimental: as §1, §2, §3, §4

MDA-MB-435 = conditions: Homo sapiens, MDA-MB-435, Breast, 48 h
Experimental: as §1, §2, §3, §4

BT-549 = conditions: Homo sapiens, BT-549, Breast, 48 h
Experimental: as §1, §2, §3, §4

RXF 393 = conditions: Homo sapiens, RXF 393, Renal, 48 h
Experimental: as §1, §2, §3, §4

ACHN = conditions: Homo sapiens, Renal, 48 h
Experimental: as §1, §2, §3, §4

NCI-H460 = conditions: Homo sapiens, NCI-H460, Non-Small Cell Lung, 48 h
Experimental: as §1, §2, §3, §4

A498 = conditions: Homo sapiens, A498, Renal, 48 h
Experimental: as §1, §2, §3, §4

SK-MEL-2 = conditions: Homo sapiens, SK-MEL-2, Melanoma, 48 h
Experimental: as §1, §2, §3, §4

SNB-19 = conditions: Homo sapiens, SNB-19, CNS, 48 h
Experimental: as §1, §2, §3, §4

SK-MEL-5 = conditions: Homo sapiens, SK-MEL-5, Melanoma, 48 h
Experimental: as §1, §2, §3, §4

CAKI-1 = conditions: Homo sapiens, CAKI-1, Renal, 48 h
Experimental: as §1, §2, §3, §4

CCRF-CEM = conditions: Homo sapiens, Leukemia, 48 h
Experimental: as §1, §2, §3, §4

HOP-62 = conditions: Homo sapiens, HOP-62, Non-Small Cell Lung, 48 h
Experimental: as §1, §2, §3, §4

How did the GI50 (HS 578T) turn out when `CC(C)=CCC/C(C)=C/CC/C(C)=C/CN1C(=O)c2cccc(O)c2Nc2c(O)cc(O)cc21` [ECO-04601, 10-farnesyl-4,6,8-trihydroxy-dibenzodiazepin-11-one] was run?
Its GI50 is 2.76 µM.

What about the GI50 (T-47D) of the same compound?
The GI50 was 0.77 µM.

What about the GI50 (HCT-15) of the same compound?
The GI50 was 9.73 µM.

What about the GI50 (OVCAR-8) of the same compound?
Its GI50 is 2.65 µM.

What about the GI50 (OVCAR-5) of the same compound?
The GI50 was 2.81 µM.

What about the GI50 (NCI-H522) of the same compound?
The GI50 was 3.44 µM.

What about the GI50 (K-562) of the same compound?
Its GI50 is 1.43 µM.

And the GI50 (HCT-116)?
Its GI50 is 2.92 µM.

What about the GI50 (SF-539) of the same compound?
Its GI50 is 0.0075 µM.

What about the GI50 (NCI/ADR-RES) of the same compound?
The GI50 was 18.3 µM.

And the GI50 (NCI-H23)?
Its GI50 is 2.02 µM.

And the GI50 (SK-OV-3)?
The GI50 was 4 µM.

And the GI50 (SW-620)?
The GI50 was 2.72 µM.

What about the GI50 (A549/ATCC) of the same compound?
Its GI50 is 9.1 µM.

What about the GI50 (MDA-MB-435) of the same compound?
The GI50 was 15.3 µM.

What about the GI50 (BT-549) of the same compound?
Its GI50 is 0.11 µM.

And the GI50 (RXF 393)?
The GI50 was 7.71 µM.

And the GI50 (ACHN)?
The GI50 was 3.1 µM.

And the GI50 (NCI-H460)?
The GI50 was 13.6 µM.

What about the GI50 (A498) of the same compound?
The GI50 was 22.3 µM.

What about the GI50 (SK-MEL-2) of the same compound?
The GI50 was 25 µM.

And the GI50 (SNB-19)?
Its GI50 is 2.9 µM.

And the GI50 (SK-MEL-5)?
Its GI50 is 7.8 µM.

What about the GI50 (CAKI-1) of the same compound?
Its GI50 is 15.2 µM.

What about the GI50 (CCRF-CEM) of the same compound?
The GI50 was 1.08 µM.

And the GI50 (HOP-62)?
Its GI50 is 8.29 µM.
